Reference: patent US20240285571A1, “METHODS OF TREATING BONE INFECTIONS” (MICROBION CORPORATION, priority 2020, published 2024)

How the values were obtained:
Test in all cases: MIC of baseline clinical isolates (Example 8)
Type in all cases: cell-based
Streptococcus oralis = Streptococcus oralis baseline isolates (N′ = 1), central laboratory, mITT
Procedure: (§1) Microbiology was assessed on Day 1 and at the time of any subsequent surgical procedure at the index site. Samples were collected from the infected bone site or involved tissue adjacent to any implant(s), swabs of the deep infection site, and the superficial tissue/wound closure/sinus tract site. Isolation and identification of aerobic and anerobic bacteria was conducted at a central microbiology laboratory (IHMA, Schaumburg, IL) and susceptibility of the isolates to MBN-101 (BisEDT) and comparator agents was performed per Clinical and Laboratory Standards Institute (CLSI). Parallel sets of samples were analyzed by the local clinical site laboratory to guide patient antibiotic treatment.

Corynebacterium jeikeium = Corynebacterium jeikeium baseline isolates (N′ = 2), central laboratory, mITT
Procedure: as §1

Dermabacter hominis = Dermabacter hominis baseline isolates (N′ = 1), central laboratory, mITT
Procedure: as §1

[1] = system: Corynebacterium resistens; details: Corynebacterium resistens baseline isolates (N′ = 1), central laboratory, mITT
Procedure: as §1

[2] = system: Corynebacterium amycolatum; details: Corynebacterium amycolatum baseline isolates (N′ = 1), central laboratory, mITT
Procedure: as §1

[3] = system: non-speciated Corynebacterium; details: Corynebacterium non-speciated baseline isolates (N′ = 2), central laboratory, mITT
Procedure: as §1

[4] = system: Staphylococcus lugdunensis; details: Staphylococcus lugdunensis baseline isolates (N′ = 3), central laboratory, mITT
Procedure: (§2) Microbiology was assessed on Day 1 and at the time of any subsequent surgical procedure at the index site. Samples were collected from the infected bone site or involved tissue adjacent to any implant(s), swabs of the deep infection site, and the superficial tissue/wound closure/sinus tract site. […] Parallel sets of samples were analyzed by the local clinical site laboratory to guide patient antibiotic treatment.

S. aureus (MRSA, MSSA) = details: Staphylococcus aureus, MRSA baseline isolates (N′ = 4), central laboratory, mITT
Procedure: as §2

S. epidermidis = details: Staphylococcus epidermidis baseline isolates (N′ = 5), central laboratory, mITT
Procedure: as §2

Staphylococcus arlettae = Staphylococcus arlettae baseline isolates (N′ = 1), central laboratory, mITT
Procedure: as §2

Staphylococcus pasteuri = Staphylococcus pasteuri baseline isolates (N′ = 1), central laboratory, mITT
Procedure: as §2

Staphylococcus hominis = Staphylococcus hominis baseline isolates (N′ = 1), central laboratory, mITT
Procedure: as §2

[5] = system: Staphylococcus haemolyticus; details: Staphylococcus haemolyticus baseline isolates (N′ = 1), central laboratory, mITT
Procedure: as §2

CC[C@H]1OC(=O)[C@H](C)[C@@H](O[C@H]2C[C@@](C)(OC)[C@@H](O)[C@H](C)O2)[C@H](C)[C@@H](O[C@@H]2O[C@H](C)C[C@H](N(C)C)[C@H]2O)[C@](C)(O)C[C@@H](C)C(=O)[C@H](C)[C@@H](O)[C@]1(C)O [ERY]
Mean MIC (Streptococcus oralis): 1.00 µg/mL | n (% resistant) (Streptococcus oralis): 1 (100.0) n (%) | Mean MIC (Corynebacterium jeikeium): 2.25 µg/mL | n (% resistant) (Corynebacterium jeikeium): 1 (50.0) n (%) | Mean MIC (Dermabacter hominis): 2.00 µg/mL | n (% resistant) (Dermabacter hominis): 1 (100.0) n (%) | Mean MIC [1]: 0.02 µg/mL | n (% resistant) [1]: 0 (0.0) n (%) | Mean MIC [2]: 4.00 µg/mL | n (% resistant) [2]: 1 (100.0) n (%) | Mean MIC [3]: 2.02 µg/mL | n (% resistant) [3]: 1 (50.0) n (%)

CC1(C)S[C@@H]2[C@H](NC(=O)[C@H](N)c3ccc(O)cc3)C(=O)N2[C@H]1C(=O)O.O=C(O)[C@H]1/C(=C/CO)O[C@@H]2CC(=O)N21 [AMC]
Mean MIC (Streptococcus oralis): 0.06 µg/mL | n (% resistant) (Streptococcus oralis): 0 (0.0) n (%) | Mean MIC (Corynebacterium jeikeium): 3.00 µg/mL | n (% resistant) (Corynebacterium jeikeium): 0 (0.0) n (%) | Mean MIC (Dermabacter hominis): 0.50 µg/mL | n (% resistant) (Dermabacter hominis): 0 (0.0) n (%) | Mean MIC [1]: 8.00 µg/mL | n (% resistant) [1]: 0 (0.0) n (%) | Mean MIC [2]: 1.00 µg/mL | n (% resistant) [2]: 0 (0.0) n (%) | Mean MIC [3]: 4.03 µg/mL | n (% resistant) [3]: 0 (0.0) n (%) | Mean MIC [4]: 3.67 µg/mL | n (% resistant) [4]: 0 (0.0) n (%) | Mean MIC (S. aureus (MRSA, MSSA)): 8.00 µg/mL | n (% resistant) (S. aureus (MRSA, MSSA)): 0 (0.0) n (%) | Mean MIC (S. epidermidis): 1.05 µg/mL | n (% resistant) (S. epidermidis): 0 (0.0) n (%) | Mean MIC (Staphylococcus arlettae): 0.25 µg/mL | n (% resistant) (Staphylococcus arlettae): 0 (0.0) n (%) | Mean MIC (Staphylococcus pasteuri): 0.12 µg/mL | n (% resistant) (Staphylococcus pasteuri): 0 (0.0) n (%) | Mean MIC (Staphylococcus hominis): 2.00 µg/mL | n (% resistant) (Staphylococcus hominis): 0 (0.0) n (%) | Mean MIC [5]: 2.00 µg/mL | n (% resistant) [5]: 0 (0.0) n (%)

CC1(C)S[C@@H]2[C@H](NC(=O)Cc3ccccc3)C(=O)N2[C@H]1C(=O)O [PEN]
Mean MIC (Streptococcus oralis): 0.06 µg/mL | n (% resistant) (Streptococcus oralis): 0 (0.0) n (%) | Mean MIC (Corynebacterium jeikeium): 4.00 µg/mL | n (% resistant) (Corynebacterium jeikeium): 2 (100.0) n (%) | Mean MIC (Dermabacter hominis): 0.50 µg/mL | n (% resistant) (Dermabacter hominis): 0 (0.0) n (%) | Mean MIC [1]: 4.00 µg/mL | n (% resistant) [1]: 1 (100.0) n (%) | Mean MIC [2]: 1.00 µg/mL | n (% resistant) [2]: 0 (0.0) n (%) | Mean MIC [3]: 2.06 µg/mL

COc1cc(Cc2cnc(N)nc2N)cc(OC)c1OC.Cc1cc(NS(=O)(=O)c2ccc(N)cc2)no1 [SXT]
Mean MIC (Streptococcus oralis): 0.12 µg/mL | n (% resistant) (Streptococcus oralis): 0 (0.0) n (%) | Mean MIC (Corynebacterium jeikeium): 2.00 µg/mL | n (% resistant) (Corynebacterium jeikeium): 0 (0.0) n (%) | Mean MIC (Dermabacter hominis): 4.00 µg/mL | Mean MIC [1]: 2.00 µg/mL | n (% resistant) [1]: 0 (0.0) n (%) | Mean MIC [2]: 0.25 µg/mL | n (% resistant) [2]: 0 (0.0) n (%) | Mean MIC [3]: 2.25 µg/mL | Mean MIC [4]: 0.16 µg/mL | n (% resistant) [4]: 0 (0.0) n (%) | Mean MIC (S. aureus (MRSA, MSSA)): 2.09 µg/mL | n (% resistant) (S. aureus (MRSA, MSSA)): 1 (25.0) n (%) | Mean MIC (S. epidermidis): 4.42 µg/mL | n (% resistant) (S. epidermidis): 3 (60.0) n (%) | Mean MIC (Staphylococcus arlettae): 8.00 µg/mL | n (% resistant) (Staphylococcus arlettae): 1 (100.0) n (%) | Mean MIC (Staphylococcus pasteuri): 0.12 µg/mL | Mean MIC (Staphylococcus hominis): 8.00 µg/mL | Mean MIC [5]: 0.25 µg/mL | n (% resistant) [5]: 10.0 n (%)

CO/N=C(\C(=O)N[C@@H]1C(=O)N2C(C(=O)O)=C(CSc3nc(=O)c(O)nn3C)CS[C@H]12)c1csc(N)n1 [CRO]
Mean MIC (Streptococcus oralis): 0.06 µg/mL | n (% resistant) (Streptococcus oralis): 0 (0.0) n (%) | Mean MIC (Corynebacterium jeikeium): 4.00 µg/mL | n (% resistant) (Corynebacterium jeikeium): 2 (100.0) n (%) | Mean MIC (Dermabacter hominis): 0.50 µg/mL | n (% resistant) (Dermabacter hominis): 0 (0.0) n (%) | Mean MIC [1]: 4.00 µg/mL | n (% resistant) [1]: 1 (100.0) n (%) | Mean MIC [2]: 1.00 µg/mL | n (% resistant) [2]: 0 (0.0) n (%) | Mean MIC [3]: 0.75 µg/mL | n (% resistant) [3]: 0 (0.0) n (%)

CN(C)c1ccc(O)c2c1C[C@H]1C[C@H]3[C@H](N(C)C)C(O)=C(C(N)=O)C(=O)[C@@]3(O)C(O)=C1C2=O [MIN]
Mean MIC [4]: 0.05 µg/mL | n (% resistant) [4]: 0 (0 0) n (%) | Mean MIC (S. aureus (MRSA, MSSA)): 0.11 µg/mL | n (% resistant) (S. aureus (MRSA, MSSA)): 0 (0.0) n (%) | Mean MIC (S. epidermidis): 0.18 µg/mL | n (% resistant) (S. epidermidis): 0 (0.0) n (%) | Mean MIC (Staphylococcus arlettae): 0.25 µg/mL | n (% resistant) (Staphylococcus arlettae): 0 (0.0) n (%) | Mean MIC (Staphylococcus pasteuri): 0.06 µg/mL | n (% resistant) (Staphylococcus pasteuri): 0 (0.0) n (%) | Mean MIC (Staphylococcus hominis): 0.12 µg/mL | n (% resistant) (Staphylococcus hominis): 0 (0.0) n (%) | Mean MIC [5]: 0.12 µg/mL | n (% resistant) [5]: 0 (0.0) n (%)

Cc1onc(-c2ccccc2)c1C(=O)N[C@@H]1C(=O)N2[C@@H]1SC(C)(C)[C@@H]2C(=O)O [OXA]
Mean MIC [4]: 2.83 µg/mL | n (% resistant) [4]: 2. (66.7) n (%) | n (% resistant) (S. aureus (MRSA, MSSA)): 4 (100.0) n (%) | Mean MIC (S. epidermidis): 125 µg/mL | n (% resistant) (S. epidermidis): 2 (40.0) n (%) | Mean MIC (Staphylococcus arlettae): 2.00 µg/mL | n (% resistant) (Staphylococcus arlettae): 1 (100.0) n (%) | Mean MIC (Staphylococcus pasteuri): 0.25 µg/mL | n (% resistant) (Staphylococcus pasteuri): 0 (0.0) n (%) | Mean MIC (Staphylococcus hominis): 4.00 µg/mL | n (% resistant) (Staphylococcus hominis): 1 (100.0) n (%) | Mean MIC [5]: 4.00 µg/mL | n (% resistant) [5]: 1 (100.0) n (%)

CC1(C)S[C@@H]2[C@H](NC(=O)[C@H](N)c3ccccc3)C(=O)N2[C@H]1C(=O)O [AMP]
Mean MIC [4]: 7.33 µg/mL | n (% resistant) [4]: 0 (0.0) n (%) | Mean MIC (S. aureus (MRSA, MSSA)): 28.00 µg/mL | n (% resistant) (S. aureus (MRSA, MSSA)): 0 (0.0) n (%) | Mean MIC (S. epidermidis): 2.60 µg/mL | n (% resistant) (S. epidermidis): 0 (0.0) n (%) | Mean MIC (Staphylococcus arlettae): 0.50 µg/mL | n (% resistant) (Staphylococcus arlettae): 0 (0.0) n (%) | Mean MIC (Staphylococcus pasteuri): 0.25 µg/mL | n (% resistant) (Staphylococcus pasteuri): 0 (0.0) n (%) | Mean MIC (Staphylococcus hominis): 4.00 µg/mL | n (% resistant) (Staphylococcus hominis): 0 (0.0) n (%) | Mean MIC [5]: 16.00 µg/mL | n (% resistant) [5]: 0 (0.0) n (%)
